“And” between values parts separate entries of the source, which are not always exact repeats. Identical values can stand only once.

The target in data set [1] is Beta-2 adrenergic receptor (Cavia porcellus) (UniProt Q8K4Z4). The conditions noted are these: Trachea.
Description: Beta-2-adrenoceptor potency was determined in rings of guinea-pig isolated trachea
Data set [2] is described as follows: physchem.
Description: Ionization constant (pKa)
Data set [3] is described as follows: physchem. The following applies: octanol/water, pH 7.4, logD.
Data set [4] can be described thus: physchem. The source holds these as a separate data set.
Description: (§1) Classification of ionization constant (pKa)
For data set [5], the target named is Beta-2 adrenergic receptor (Cavia porcellus) (UniProt Q8K4Z4).
Description: In vitro beta-2 duration was determined using electrically stimulated guinea-pig isolated trachea superfusion system
Data set [6] has as its target D(2) dopamine receptor (Homo sapiens) (UniProt P14416). Put plainly: […] D2 duration was determined using electrically stimulated guinea-pig isolated trachea superfusion system. It counts as functional. The conditions noted are these: Cavia porcellus, target entry is the homologue from another species.
Data set [7] is described as follows: physchem. The source holds these as a separate data set.
Description: as §1
The conditions of data set [8]: octanol/water, pH 7.4.

Sequence of D(2) dopamine receptor (Homo sapiens) (P14416 whole entry, the tested form may be a part): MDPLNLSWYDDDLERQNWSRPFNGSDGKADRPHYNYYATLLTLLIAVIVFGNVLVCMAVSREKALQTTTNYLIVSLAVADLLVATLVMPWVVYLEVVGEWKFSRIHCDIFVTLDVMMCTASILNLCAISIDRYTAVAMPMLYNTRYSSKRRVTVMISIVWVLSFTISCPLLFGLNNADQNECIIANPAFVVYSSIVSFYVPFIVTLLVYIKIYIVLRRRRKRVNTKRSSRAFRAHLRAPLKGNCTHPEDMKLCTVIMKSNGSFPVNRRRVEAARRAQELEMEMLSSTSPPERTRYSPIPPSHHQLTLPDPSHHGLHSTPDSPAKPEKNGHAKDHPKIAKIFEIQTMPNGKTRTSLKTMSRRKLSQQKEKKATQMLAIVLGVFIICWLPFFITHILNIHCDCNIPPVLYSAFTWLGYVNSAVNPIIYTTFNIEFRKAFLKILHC
Sequence of Beta-2 adrenergic receptor (Cavia porcellus) (Q8K4Z4 whole entry, looked up, the tested form may be a part): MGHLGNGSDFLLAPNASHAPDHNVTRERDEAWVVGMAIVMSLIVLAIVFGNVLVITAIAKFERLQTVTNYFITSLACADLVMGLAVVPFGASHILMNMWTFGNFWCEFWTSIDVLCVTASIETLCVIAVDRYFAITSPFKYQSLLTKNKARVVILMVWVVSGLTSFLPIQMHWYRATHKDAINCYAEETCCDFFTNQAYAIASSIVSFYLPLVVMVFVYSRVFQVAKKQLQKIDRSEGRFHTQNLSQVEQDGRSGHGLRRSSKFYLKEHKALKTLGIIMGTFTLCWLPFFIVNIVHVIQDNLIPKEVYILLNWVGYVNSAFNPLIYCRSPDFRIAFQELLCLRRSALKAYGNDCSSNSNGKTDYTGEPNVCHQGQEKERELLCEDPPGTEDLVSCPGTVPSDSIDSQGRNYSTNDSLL

What is called pKa is the pH at which an ionisable group is half protonated. In general, logD refers to the decadic logarithm of the distribution of all forms, ionised or not, between an organic phase and buffer at a given pH. Low readings indicate lower lipophilicity, high ones higher lipophilicity. `O=C(CCOCCc1ccccc1)NCCNCCc1ccc(O)c2nc(O)sc12` returned a p[A]50 in data set [1] of 9.27. Further, the pKa in data set [2] is > 8; in data set [4], 8.75; in data set [7], 7.62. This molecule gave a logD in data set [3] of 1.34. The molecule further came in with a Beta2 duration in data set [5] of 57 min. In addition, in data set [6], the D2 duration came to 150 min.
As to `O=S(=O)(CCCNCCc1ccc(O)c2nc(O)sc12)CCOCCc1ccccc1`, in data set [1], the p[A]50 amounted to 7.93. Further, the results for the pKa in data set [2], in data set [4] and in data set [7] were > 8, 9.07 and 7.35, respectively. Also, in data set [3], the logD stood at 1.37. The molecule further came in with a Beta2 duration in data set [5] of 140 min. In data set [6], the D2 duration was 270 min.
In the case of `O=c1[nH]c2c(O)ccc(CCNCCCS(=O)(=O)CCCOCCc3ccccc3)c2s1`, in data set [1], the p[A]50 is 8.24. Further, in data set [2], the pKa is > 8. In addition, the logD in data set [3] came to 1.65; in data set [8], 1.34. In data set [5], the Beta2 duration was 172 min and 80 min. This molecule displayed a D2 duration in data set [6] of 270 min.
`O=c1[nH]c2c(O)ccc(CCNCCCSCCOCCc3ccccc3)c2s1`: the p[A]50 in data set [1] stood at 8.02. Also, the pKa was > 8 in data set [2] and 10.2 in data set [4]. Further, the figures for the logD in data set [3] and in data set [8] were 2.31 and 3.53, respectively. Further, the Beta2 duration in data set [5] is > 180 min. The molecule also gave a D2 duration in data set [6] of 270 min.

For the origin of these results see ChEMBL document CHEMBL1145849, “QSAR and the rational design of long-acting dual D2-receptor/beta 2-adrenoceptor agonists” (J Med Chem, 2003).
